The results in this text go back to US20090240048A1, “Alpha-crystalline form of substituted selenoxanthenes and the method of its preparation” (MEDBIOPHARM LTD, priority 2008, published 2009).

Series [1] is described as follows: Angle of repose (flowability) of powder. The series is classed as physicochemical.
The next series is described as follows: Storage life. Format: physicochemical.

In turn, `c1ccc(C2C3=C(CCCC3)[Se]C3=C2CCCC3)cc1` [9-phenyl-symmetrical-octahydroselenoxanthene] registered an Angle of repose in series [1] of 52°. Besides, the Storage life in the series “Storage life” was determined as 6 months.
